According to US10258603B2 (priority 2014, dated 2019):

Legend:
[1] = biological target: T1, BRD9 (Homo sapiens, UniProt Q9H8M2); assay: BRD9 AlphaLisa Binding Assay
T1 construct: 134-239 was cloned, expressed, and purified to homogeneity; Flag; made in house
T1 sequence (Q9H8M2 134-239 limits assumed): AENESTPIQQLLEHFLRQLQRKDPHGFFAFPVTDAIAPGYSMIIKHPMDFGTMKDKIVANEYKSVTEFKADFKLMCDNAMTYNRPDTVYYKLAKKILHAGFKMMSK
Description: IC50 Measurements for Inhibitors Using BRD9 AlphaLisa Binding Assay His/Flag epitope tagged BRD9134-239 was cloned, expressed, and purified to homogeneity. […] After 20 minutes incubation at room temperature AlphaLisa Streptavidin Acceptor Beads (Perkin-A[…]) and AlphaLisa Nickel donor beads (Perkin AS 10 ID) were added to a final concentration of 15 ug/mL each.

[2] = biological target: T2, TAF1-BD2 (Homo sapiens, UniProt P21675); assay: TAF1-BD2 TR-FRET Binding Assay; conditions: Assay: TAF-1
T2 sequence (P21675 1525-1656): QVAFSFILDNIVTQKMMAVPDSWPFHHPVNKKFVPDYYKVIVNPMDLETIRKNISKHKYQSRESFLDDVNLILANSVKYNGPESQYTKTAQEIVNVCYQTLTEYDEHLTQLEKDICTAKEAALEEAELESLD
Description: Specifically, in a 384 well ProxiPlate TAF1-BD2 (6 nM final) was combined with biotin-ligand (50 nM final) in 50 mM HEPES (pH 7.5), 50 mM NaCl, 1 mM TCEP, 0.01% (w/v) BSA, and 0.008% (w/v) Brij-35 either in the presence of DMSO (final 0.2% DMSO) or compound dilution series in DMSO. After 10 minutes incubation at room temperature, a mixture Eu-W1024 Anti-6×His antibody (Perkin Elmer AD0110) and SureLight™ Allophycocyanin-Streptavidin (APC-SA, Perkin Elmer CR130-100) were added to a final concentrations of 0.2 nMolar antibody and 25 nMolar APC-SA, respectively. After twenty minutes of equilibration, the plates were read on an Envision instrument and IC50s calculated using a four parameter non-linear curve fit.

Molecule	IC50 [1] [nM]	IC50 [2] [nM]
CN(C)CCNC(=O)c1cn(C)c(=O)c2[nH]ccc12 [Example 1, N-(2-dimethylaminoethyl)-6-methyl-7-oxo-1H-pyrrolo[2,3-c]pyridine-4-carboxamide]	3000	–
CN1CCC(CNC(=O)c2cn(C)c(=O)c3[nH]ccc23)CC1 [Example 3, 6-methyl-N-[(1-methyl-4-piperidyl)methyl]-7-oxo-1H-pyrrolo[2,3-c]pyridine-4-carboxamide]	3500	–
Cn1cc(C(=O)NCCN2CCCCC2)c2cc[nH]c2c1=O [Example 5, 6-methyl-7-oxo-N-[2-(1-piperidyl)ethyl]-1H-pyrrolo[2,3-c]pyridine-4-carboxamide]	790	–
CN1CCC(NC(=O)c2cn(C)c(=O)c3[nH]ccc23)C1 (centres unmarked) [Example 6, 6-methyl-N-(1-methylpyrrolidin-3-yl)-7-oxo-1H-pyrrolo[2,3-c]pyridine-4-carboxamide]	1500	–
CN1CCCC1CCNC(=O)c1cn(C)c(=O)c2[nH]ccc12 (centres unmarked) [Example 7, 6-methyl-N-[2-(1-methylpyrrolidin-2-yl)ethyl]-7-oxo-1H-pyrrolo[2,3-c]pyridine-4-carboxamide]	990	–
CC=CCn1cc(C(=O)NCCCN2CCN(C)CC2)c2cc[nH]c2c1=O [Example 9, 6-but-2-enyl-N-[3-(4-methylpiperazin-1-yl)propyl]-7-oxo-1H-pyrrolo[2,3-c]pyridine-4-carboxamide]	920	–
CC=CCn1cc(C(=O)NCC2CCN(C)CC2)c2cc[nH]c2c1=O [Example 11, 6-but-2-enyl-N-[(1-methyl-4-piperidyl)methyl]-7-oxo-1H-pyrrolo[2,3-c]pyridine-4-carboxamide]	5400	–
CC=CCn1cc(C(=O)NCCN2CCN(C)CC2)c2cc[nH]c2c1=O [Example 12, 6-but-2-enyl-N-[2-(4-methylpiperazin-1-yl)ethyl]-7-oxo-1H-pyrrolo[2,3-c]pyridine-4-carboxamide]	840	–
CC=CCn1cc(C(=O)NC2(C)CCCCC2)c2cc[nH]c2c1=O [Example 18, 6-but-2-enyl-N-(1-methylcyclohexyl)-7-oxo-1H-pyrrolo[2,3-c]pyridine-4-carboxamide]	2100	–
CC=CCn1cc(C(=O)NCCC2CCN(C(=O)OCc3ccccc3)C2)c2cc[nH]c2c1=O (centres unmarked) [Example 19, benzyl 3-[2-[(6-but-2-enyl-7-oxo-1H-pyrrolo[2,3-c]pyridine-4-carbonyl)amino]ethyl]pyrrolidine-1-carboxylate]	75	–
CN(C(=O)c1cn(C)c(=O)c2[nH]ccc12)C1CCN(Cc2ccccc2)C1 (centres unmarked) [Example 22, N-(1-benzylpyrrolidin-3-yl)-N,6-dimethyl-7-oxo-1H-pyrrolo[2,3-c]pyridine-4-carboxamide]	7300	–
CC1CC(C)CN(CCNC(=O)c2cn(C)c(=O)c3[nH]ccc23)C1 (centres unmarked) [Example 33, N-[2-(3.5-dimethyl-1-piperidyl)ethyl]-6-methyl-7-oxo-1H-pyrrolo[2,3-c]pyridine-4-carboxamide]	5400	–
CN1CCN(CCCNC(=O)c2cn(C)c(=O)c3[nH]ccc23)CC1 [Example 34, 6-methyl-N-[3-(4-methylpiperazin-1-yl)propyl]-7-oxo-1H-pyrrolo[2,3-c]pyridine-4-carboxamide]	2200	–
Cn1cc(C(=O)NC(C)(C)CN2CCOCC2)c2cc[nH]c2c1=O [Example 35, N-(1,1-dimethyl-2-morpholino-ethyl)-6-methyl-7-oxo-1H-pyrrolo[2,3-c]pyridine-4-carboxamide]	11000	–
CN1CCN(C(=O)c2cn(C)c(=O)c3[nH]ccc23)CC1 [Example 38, 6-methyl-4-(4-methylpiperazine-1-carbonyl)-1H-pyrrolo[2,3-c]pyridin-7-one]	8000	–
CC1CCCN(CCNC(=O)c2cn(C)c(=O)c3[nH]ccc23)C1 (centres unmarked) [Example 45, 6-methyl-N-[2-(3-methyl-1-piperidyl)ethyl]-7-oxo-1H-pyrrolo[2,3-c]pyridine-4-carboxamide]	6100	–
Cn1cc(C(=O)N2CCCC2c2ccccc2)c2cc[nH]c2c1=O (centres unmarked) [Example 85]	570	–
Cn1cc(C(=O)NCC2CCCCC2)c2cc[nH]c2c1=O [Example 86]	160	–
CN(Cc1ccccc1)C(=O)c1cn(C)c(=O)c2[nH]ccc12 [Example 87]	1000	–
Cn1cc(C(=O)N2CCNc3ccccc3C2)c2cc[nH]c2c1=O [Example 88]	1500	–

Molecule	IC50 [1] [nM]	IC50 [2] [nM]
Cn1cc(C(=O)N2CCC(c3ccccc3)C2)c2cc[nH]c2c1=O (centres unmarked) [Example 89]	4100	–
Cn1cc(C(=O)N[C@H](C(N)=O)c2ccccc2)c2cc[nH]c2c1=O [Example 90]	300	–
Cn1cc(C(=O)NC(c2ccccc2)c2ccccc2)c2cc[nH]c2c1=O [Example 91]	200	–
Cn1cc(C(=O)N[C@@H](C(N)=O)c2ccccc2)c2cc[nH]c2c1=O [Example 97]	490	–
CC(C)[C@H](NC(=O)c1cn(C)c(=O)c2[nH]ccc12)C(N)=O [Example 98]	550	–
Cn1cc(C(=O)NCC2CCOC2)c2cc[nH]c2c1=O (centres unmarked) [Example 102]	860	–
Cn1cc(C(=O)NCC2CCCCCC2)c2cc[nH]c2c1=O [Example 103]	490	–
Cn1cc(C(=O)NC2CCOC2)c2cc[nH]c2c1=O (centres unmarked) [Example 104]	980	–
CC(NC(=O)c1cn(C)c(=O)c2[nH]ccc12)C1CC2CCC1C2 (centres unmarked) [Example 106]	240	–
Cn1cc(C(=O)N[C@H](c2ccccc2)[C@@H](O)c2ccccc2)c2cc[nH]c2c1=O [Example 107]	3400	–
Cn1cc(C(=O)NCC2COc3ccccc3C2)c2cc[nH]c2c1=O (centres unmarked) [Example 108]	200	–
Cn1cc(C(=O)NC2CCN(C(=O)OC(C)(C)C)C2)c2cc[nH]c2c1=O (centres unmarked) [Example 109]	270	–
Cn1cc(C(=O)NCC2Cc3ccccc3O2)c2cc[nH]c2c1=O (centres unmarked) [Example 110]	850	–
Cn1cc(C(=O)NCC2COc3ccccc3O2)c2cc[nH]c2c1=O (centres unmarked) [Example 111]	240	–
CC(NC(=O)c1cn(C)c(=O)c2[nH]ccc12)C1CC1 (centres unmarked) [Example 112]	460	–
Cn1cc(C(=O)NCc2cccc3ccccc23)c2cc[nH]c2c1=O [Example 114]	73	–
CC(NC(=O)c1cn(C)c(=O)c2[nH]ccc12)c1ccncc1 (centres unmarked) [Example 115]	640	–
CC(NC(=O)c1cn(C)c(=O)c2[nH]ccc12)c1ccccc1Cl (centres unmarked) [Example 118]	240	–
CC(NC(=O)c1cn(C)c(=O)c2[nH]ccc12)c1ccc2c(c1)OCCO2 (centres unmarked) [Example 120]	440	–
Cn1cc(C(=O)NC2COCc3ccccc32)c2cc[nH]c2c1=O (centres unmarked) [Example 121]	100	–

Molecule	IC50 [1] [nM]	IC50 [2] [nM]
Cc1cc(CC(C)NC(=O)c2cn(C)c(=O)c3[nH]ccc23)on1 (centres unmarked) [Example 122]	2200	–
Cn1cc(C(=O)NC2COCC2c2ccc(F)cc2)c2cc[nH]c2c1=O (centres unmarked) [Example 124]	2900	–
Cn1cc(C(=O)NC2CCCc3ccccc32)c2cc[nH]c2c1=O (centres unmarked) [Example 125]	130	–
CC(NC(=O)c1cn(C)c(=O)c2[nH]ccc12)c1ccc(F)cc1 (centres unmarked) [Example 129]	220	–
Cn1cc(C(=O)NC(C)(C)c2ccccc2)c2cc[nH]c2c1=O [Example 131]	1600	–
Cn1cc(C(=O)NCC2CN(C(=O)OC(C)(C)C)CCO2)c2cc[nH]c2c1=O (centres unmarked) [Example 134]	280	–
Cn1cc(C(=O)NCC2CCCN2C(=O)OC(C)(C)C)c2cc[nH]c2c1=O (centres unmarked) [Example 136, tert-butyl 2-[[(6-methyl-7-oxo-1H-pyrrolo[2,3-c]pyridine-4-carbonyl)amino]methyl]pyrrolidine-1-carboxylate]	400	–
Cn1cc(C(=O)NC2CCCN(C(=O)OC(C)(C)C)C2)c2cc[nH]c2c1=O (centres unmarked) [Example 138]	310	–
CN(C(=O)c1cn(C)c(=O)c2[nH]ccc12)C1CCN(c2nccc(C#N)n2)CC1 [Example 146, N-[1-(4-cyanopyrimidin-2-yl)-4-piperidyl]-N,6-dimethyl-7-oxo-1H-pyrrolo[2,3-c]pyridine-4-carboxamide]	1600	–
CN1CCC(C)(NC(=O)c2cn(C)c(=O)c3[nH]ccc23)CC1 [Example 210, N-(1,4-dimethyl-4-piperidyl)-6-methyl-7-oxo-1H-pyrrolo[2,3-c]pyridine-4-carboxamide]	–	5300
CN(C(=O)c1cn(C)c(=O)c2[nH]ccc12)C1CCN(CC2CCCC2)CC1 [Example 219]	–	3600
CC(C)N1CC2C(C1)C2NC(=O)c1cn(C)c(=O)c2[nH]ccc12 (centres unmarked) [Example 228]	–	3300
CN(CC1CCN(CC2CCCO2)CC1)C(=O)c1cn(C)c(=O)c2[nH]ccc12 (centres unmarked) [Example 231]	–	9900
CN(CC1CCN(CC2CCCCO2)CC1)C(=O)c1cn(C)c(=O)c2[nH]ccc12 (centres unmarked) [Example 235]	–	9900
CN(CC1CCN(CC2CCOC2)CC1)C(=O)c1cn(C)c(=O)c2[nH]ccc12 (centres unmarked) [Example 236]	–	14000
C=CCn1cc(C(=O)N(C)C2[C@H]3CN(c4nccc(C(F)(F)F)n4)C[C@@H]23)c2cc[nH]c2c1=O (some centres unmarked) [Example 250]	–	14000
CN(C(=O)c1cn(C)c(=O)c2[nH]ccc12)C1CCN(CCc2ccccc2)CC1 [Example 252, N,6-dimethyl-7-oxo-N-(1-phenethyl-4-piperidyl)-1H-pyrrolo[2,3-c]pyridine-4-carboxamide]	–	5000
CC(CN1CCC(N(C)C(=O)c2cn(C)c(=O)c3[nH]ccc23)CC1)c1ccccc1 (centres unmarked) [Example 255]	–	4800
N-cyclopropyl-6-methyl-N-(1-methyl-4-piperidyl)-7-oxo-1H-pyrrolo[2,3-c]pyridine-4-carboxamide [Example 81]	–	710
